Measurements from US20210283099A1, “CDC7 KINASE INHIBITORS AND USES THEREOF” (SLOAN-KETTERING INSTITUTE FOR CANCER RESEARCH, priority 2010, published 2021).
In brackets after ≈: the same amount, converted by molar mass. Read-outs that look alike come from different tables or passages of the source.

Legend:
PhALL3.1 cells = assay: Caspase 3 fluorometric activity assay in G1 synchronized cells; assay type: cell-based, human; conditions: 10 hours following release of G1 synchronized cells
Ph-ALL3.1 cells [1] = assay: Release of elutriated S phase cells, FACS and 3H-thymidine incorporation; assay type: cell-based, human
Description: FIG. 5. […] Ph-ALL3.1 cells were subjected to standard centrifugal elutriation conditions and the S phase fraction, as determined by FACS analysis, was released into granaticin A (1 μM) or vehicle control (DMSO) for the indicated times and FACS analysis was performed. […] Apoptosis was confirmed in additional independent experiments. Asynchronous and time zero correspond to an asynchronous cell sample and the elutriated S phase fraction prior to release, respectively.
FIG. 6. Thymidine incorporation in S-phase: ^3H-Thymidine incorporation during the release experiment outlined in the slide above. Cell samples post-release into granaticin A or vehicle control (DMSO) were pulsed for 2 hours with ^3H-thymidine, and samples were collected, washed, and acid precipitable counts were measured by scintillation counting. X-axis is time post-release into compound or control (in hours) and y-axis is counts per minute (CPM).

Ph-ALL3.1 cells [2] = assay: Release of elutriated G1 phase cells, 3H-thymidine incorporation and FACS; assay type: cell-based, human; set-up: dose or concentration left out as unconfirmed; conditions: G1 phase fraction released into granaticin A
Description: FIG. 2. Elutriation profile of PhALL3.1: Centrifugal elutriation was used to synchronize the recently established Philadelphia chromosome positive acute lymphoblastic leukemia cell line (PhALL3.1). An asynchronous culture (4 liters) was pelleted, resuspended in a small volume (20 ml), and loaded into the elutriation rotor as outlined by the manufacturer (Beckman). After equilibration and washing, cell samples were eluted from the rotor based on size with the smaller cells exiting the rotor first. Ten fractions (250 ml) were taken across the gradient and standard FACS analysis performed on 10 ml of each fraction looking at DNA content. G1, S, and G2 phase cell populations are indicated in the asynchronous profile. This method allows for isolation of phase specific cell populations.
FIG. 3. […] Ph-ALL3.1 cells were subjected to standard centrifugal elutriation conditions and the G1 phase fraction, as determined by FACS analysis (Time Zero), was released into granaticin A ([…]) or vehicle control (DMSO) for the indicated times. Cell samples post-release into granaticin A or vehicle control (DMSO) were pulsed for 2 hours with ^3H-thymidine and samples were collected, washed, and acid precipitable counts were measured by scintillation counting. X-axis is time post-release into compound or control (in hours) and y-axis is counts per minute (CPM). […]

human recombinant Cdc7 = human recombinant Cdc7 (Homo sapiens, UniProt O00311); assay: In vitro kinase reaction, Mcm2 phosphorylation by Cdc7; assay type: biochemical; conditions: radioactive ATP, SDS-PAGE, autoradiography
Chain of human recombinant Cdc7 (O00311 whole entry): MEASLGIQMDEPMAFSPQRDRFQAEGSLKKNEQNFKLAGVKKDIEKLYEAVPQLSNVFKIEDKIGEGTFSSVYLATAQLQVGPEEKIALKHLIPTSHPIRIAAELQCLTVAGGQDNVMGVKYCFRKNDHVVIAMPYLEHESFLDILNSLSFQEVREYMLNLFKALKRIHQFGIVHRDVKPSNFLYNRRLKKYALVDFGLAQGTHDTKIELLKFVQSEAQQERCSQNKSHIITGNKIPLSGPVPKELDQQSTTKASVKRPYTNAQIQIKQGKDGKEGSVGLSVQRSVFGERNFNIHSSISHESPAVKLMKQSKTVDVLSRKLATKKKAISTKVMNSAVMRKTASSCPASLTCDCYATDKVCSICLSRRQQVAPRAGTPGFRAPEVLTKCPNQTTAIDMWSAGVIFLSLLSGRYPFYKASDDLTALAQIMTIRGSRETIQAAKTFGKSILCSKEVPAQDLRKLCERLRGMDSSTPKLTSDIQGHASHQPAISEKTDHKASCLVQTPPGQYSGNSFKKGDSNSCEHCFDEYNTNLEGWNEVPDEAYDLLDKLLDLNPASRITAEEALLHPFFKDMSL
Chain of human recombinant Cdc7 (Q9UBU7 whole entry partner): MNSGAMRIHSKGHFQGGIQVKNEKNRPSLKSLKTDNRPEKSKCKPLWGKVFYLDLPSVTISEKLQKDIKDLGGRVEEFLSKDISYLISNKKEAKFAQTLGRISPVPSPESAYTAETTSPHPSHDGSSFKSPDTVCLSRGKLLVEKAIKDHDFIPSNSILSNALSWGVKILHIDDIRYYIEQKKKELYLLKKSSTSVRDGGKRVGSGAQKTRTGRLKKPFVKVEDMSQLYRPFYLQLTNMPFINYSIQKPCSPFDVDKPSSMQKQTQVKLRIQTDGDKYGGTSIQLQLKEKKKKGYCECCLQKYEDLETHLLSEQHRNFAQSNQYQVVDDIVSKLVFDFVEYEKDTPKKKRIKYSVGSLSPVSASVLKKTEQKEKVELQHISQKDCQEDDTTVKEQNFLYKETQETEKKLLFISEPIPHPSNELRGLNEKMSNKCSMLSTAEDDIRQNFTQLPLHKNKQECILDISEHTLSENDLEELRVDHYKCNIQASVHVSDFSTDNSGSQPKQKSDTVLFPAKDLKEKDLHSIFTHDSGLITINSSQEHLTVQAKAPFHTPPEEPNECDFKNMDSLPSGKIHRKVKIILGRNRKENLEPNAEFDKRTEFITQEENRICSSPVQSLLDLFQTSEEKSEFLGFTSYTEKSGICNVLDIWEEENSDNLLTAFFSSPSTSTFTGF
Description: FIG. 8. Mcm2 phosphorylation by Cdc7: Phosphorylated forms of Mcm2 migrate […] in SDS-PAGE gels. Using highly purified human recombinant Cdc7 and Mcm2, standard in vitro kinase reactions were performed in the presence of radioactive ATP and products were separated on SDS-PAGE gels, stained with silver, and autoradiography was performed to detect phosphorylated forms of Mcm2.

PhALL3.1 [3] = assay: SCID-Beige mouse intraperitoneal tumor model of PhALL3.1; assay type: in vivo
Description: FIGS. 19A-19B. Granaticin A Inhibits growth of PhALL3. 1 in vivo: Using a SCID-Beige mouse intraperitoneal tumor model of PhALL3.1, mice were intraperitoneally treated with vehicle control (DMSO) or the indicated doses of granaticin A on days 3, 6, 9, and 12. Day 16 in vivo bioluminescence imaging (FIG. 19A) and quantitation of tumor volume are shown (FIG. 19B) and indicate 90% reduction in tumor volume by Day 16 in mice treated at the highest dose (3.0 mg/kg).

A459 cells = assay: Nude mouse xenograft, non small-cell lung cancer; assay type: in vivo; conditions: 2.5 mg/kg/day continuous, osmotic diffusion pumps; sections at day 28
Description: (§1) FIG. 22A-22C. Granaticin B is Effective Against Multiple Solid Tumors: granaticin B is efficacious against mouse models of melanoma (FIG. 22A), non-small cell lung cancer (FIG. 22B), and ovarian cancer (FIG. 22C). For the ovarian cancer experiments, SCID-Beige mice were injected with 5 million OVCAR3 cells that had been transduced with a GFP-firefly luciferase expressing plasmid (Frattini, M. G. and Brentjens, R. J., unpublished data). These cells were then injected intraperitoneally into 4 cohorts of mice on Day 1. From days 7-14 the mice were injected daily with the indicated concentrations of granaticin B in the intraperitoneal space. […] Nude mice were treated with 2.5 mg/kg/day granaticin B in a continuous fashion using osmotic diffusion pumps. Sections of the treated xenografts are shown after euthanasia at day 28 and H&E staining.

JOKE-2 cells = assay: Trypan blue viability and caspase-3 assay; assay type: cell-based, human; conditions: 1 microM
Description: FIGS. 24A-24B. […] The JOKE-2 cell line was derived from a patient with Philadelphia chromosome positive Acute Lymphoblastic Leukemia (Ph-ALL). […] FIG. 24A: Joke-2 cells were grown in the presence of DMSO control or granaticin B (1 microM) for the indicated times and viability was measured after staining a cell sample in trypan blue (Sigma-Aldrich).

PhALL3.1 [4] = assay type: in vivo
From the text: FIGS. 20A-20C. Granaticin B Inhibits Ph-ALL3. 1 growth in vivo: Given the rapid intravenous clearance of granaticin A by the liver, granaticin B was used in a continuous infusion experiment with the PhALL3.1 animal model. Diffusion pumps containing granaticin B were surgically implanted in the flanks of 5 cohorts of mice on day +3 after injection of 5 million cells via the tail veins, and the drug (or control—C-DMSO) at the indicated concentration was allowed to diffuse for seven days before pump removal. The mice were imaged on day 12 (FIGS. 20A-20B) and tumor volume remaining was calculated (FIG. 20C).

OVCAR3 cells = assay: OVCAR3 intraperitoneal ovarian cancer model in SCID-Beige mice; assay type: in vivo, mouse; conditions: 3 mg/kg intraperitoneally daily days 7-14; imaging on day 42
Description: as §1

SKMEL-28 = assay: Nude mouse xenograft, melanoma; assay type: in vivo; conditions: 2.5 mg/kg/day continuous, osmotic diffusion pumps; sections at day 28
Description: as §1

[5] = Standard solubility studies; assay type: physicochemical
Description: Standard solubility studies were conducted with granaticin B. In aqueous solution, 4.0 mg/ml of granaticin B is soluble. In alcohol, >188 mg/ml of granaticin B is soluble. In methanol, >252 mg/ml of granaticin B is soluble.

Row | Compound | caspase 3 activity / apoptosis (PhALL3.1 cells) | cell cycle profile by FACS (Ph-ALL3.1 cells [1]; S phase fraction released into 1 μM) | 3H-thymidine incorporation (Ph-ALL3.1 cells [1]; S phase fraction, 2 hours pulses post-release) | 3H-thymidine incorporation (Ph-ALL3.1 cells [2]) | cell cycle profile (Ph-ALL3.1 cells [2]) | Cdc7 kinase activity on Mcm2 (human recombinant Cdc7) | organ toxicity at necropsy (PhALL3.1 [3]; all mice examined at each dose level) | reduction in tumor volume (PhALL3.1 [3]; highest dose 3.0 mg/kg intraperitoneally on days 3, 6, 9, 12, Day 16 bioluminescence imaging) [%] | efficacy in mouse model of non-small cell lung cancer (A459 cells) | caspase-3 activation (JOKE-2 cells) | effect on viability (trypan blue) (JOKE-2 cells) | tumor reduction (PhALL3.1 [4]; highest dose, diffusion pump for seven days from day +3, imaged on day 12) [%] | organ toxicity at necropsy (PhALL3.1 [4]; mouse, in vivo) | disease by luciferase imaging (OVCAR3 cells) | efficacy in mouse model of melanoma (SKMEL-28) | solubility ([5]; organic solvent or mixture, in alcohol) [mg/mL] | solubility ([5]; organic solvent or mixture, in methanol) [mg/mL] | solubility ([5]; water, in aqueous solution) [mg/mL]
1 | CC1OC2CC(O)C1(O)c1c(O)c3c(c(O)c12)C(=O)C1=C(C3=O)[C@H](C)O[C@H]2CC(=O)O[C@@H]12 (stereo partly drawn) [Granaticin A, granaticin A] | induces Caspase 3-mediated apoptosis | cell cycle arrest and apoptosis | markedly reduced incorporation | stop incorporating ^3H-thymidine | G1 phase arrest | small molecule inhibitor of Cdc7 kinase activity | no significant (grade 2 or higher) organ toxicity | 90 | – | – | – | – | – | – | – | – | – | –
2 | CC1OC2CC(O[C@H]3CC[C@H](O)[C@H](C)O3)C1(O)c1c(O)c3c(c(O)c12)C(=O)C1=C(C3=O)[C@H](C)O[C@H]2CC(=O)O[C@@H]12 (stereo partly drawn) [Granaticin B, granaticin B] | – | – | – | – | – | – | – | – | efficacious | only activated in cells exposed to granaticin B | very effective | 95 | without obvious organ toxicity | essentially no disease | efficacious | > 188 | > 252 | 4 (≈ 7.16 mM)
